Results reported in patent publication US9682991B2, “Tricyclic compounds for use as kinase inhibitors” (FUNDACIÓN CENTRO NACIONAL DE INVESTIGACIONES ONCOLOGICAS …, priority 2009, dated 2017).
Where two headings read alike, the source gives them in different places.

Experiments:
PIM-3 = PIM-3 (Homo sapiens (Human), UniProt Q86V86); assay: PIM-3 biochemical assay (ADP Hunter); details: semi-quantitative; read-out: PIM3 IC50
PIM-2 = PIM-2 (Homo sapiens (Human), UniProt Q9P1W9); assay: PIM-2 biochemical assay (ADP Hunter); details: semi-quantitative; read-out: PIM2 IC50
Excerpt: The biochemical assay to measure PIM-2 activity relies on the ADP Hunter assay kit (DiscoveRx Corp., Cat. #90-0077), that determines the amount of ADP as direct product of the kinase enzyme activity.

PIM-1 = PIM-1 (Homo sapiens (Human), UniProt P11309); assay: PIM-1 biochemical assay (ADP Hunter)
[1] = read-out: PIM1 IC50, semi-quantitative

Chain of PIM-2 (Q9P1W9 whole entry): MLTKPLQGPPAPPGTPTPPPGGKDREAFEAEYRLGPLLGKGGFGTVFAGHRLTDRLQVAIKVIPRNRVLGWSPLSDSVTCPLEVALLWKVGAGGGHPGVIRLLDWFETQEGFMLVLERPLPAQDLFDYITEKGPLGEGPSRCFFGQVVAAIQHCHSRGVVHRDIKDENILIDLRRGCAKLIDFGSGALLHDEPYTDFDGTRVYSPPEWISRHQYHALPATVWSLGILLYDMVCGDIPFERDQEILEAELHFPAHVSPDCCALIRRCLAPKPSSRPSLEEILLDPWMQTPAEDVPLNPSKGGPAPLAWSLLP
Chain of PIM-1 (P11309 whole entry): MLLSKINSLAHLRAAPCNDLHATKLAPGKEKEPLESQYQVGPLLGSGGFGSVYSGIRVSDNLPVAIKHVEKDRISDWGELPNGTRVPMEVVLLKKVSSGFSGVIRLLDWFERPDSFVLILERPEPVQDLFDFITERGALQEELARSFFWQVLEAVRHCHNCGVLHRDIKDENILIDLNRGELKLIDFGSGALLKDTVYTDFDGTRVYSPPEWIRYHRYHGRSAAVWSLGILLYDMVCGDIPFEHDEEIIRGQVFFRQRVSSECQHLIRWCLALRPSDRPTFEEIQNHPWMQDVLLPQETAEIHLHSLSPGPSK

IC50 (PIM-3) [nM] | IC50 (PIM-2) [nM] | IC50 (PIM-1; [1]) [nM] | IC50 (PIM-1) [nM] | IC50 (PIM-1; read-out: PIM1 IC50) [nM] | Compound
< 100 | 100 to 1000 | < 100 |  |  | CN1CCOc2c1c(N(C)C1CCOCC1)nn1c(-c3cccc(OC(F)(F)F)c3)nnc21 [Example 97, Methyl-[6-methyl-3-(3-trifluoromethoxy-phenyl)-7,8-dihydro-6H-9-oxa-1,2,3a,4,6-pentaaza-cyclopenta[a]naphthalen-5-yl]-(tetrahydro-pyran-4-yl)-amine]
< 100 |  | < 100 |  |  | CN1CCOc2c1c(NCC1CCC(O)CC1)nn1c(-c3cccc(OC(F)(F)F)c3)nnc21 (stereo not drawn) [Example 43, 4-{[6-Methyl-3-(3-trifluoromethoxy-phenyl)-7,8-dihydro-6H-9-oxa-1,2,3a,4,6-pentaaza-cyclopenta[a]naphthalen-5-ylamino]-methyl}-cyclohexanol]
 | > 1000 |  | 100 to 1000 |  | CN1CCOc2c(N3CC4(CCNCC4)C3)nn3c(-c4cccc(OC(F)(F)F)c4)nnc3c21 [Example 83, 5-(2,7-Diaza-spiro[3.5]non-2-yl)-9-methyl-3-(3-trifluoromethoxy-phenyl)-8,9-dihydro-7H-6-oxa-1,2,3a,4,9-pentaaza-cyclopenta[a]naphthalene]
100 to 1000 | 100 to 1000 |  |  |  | CN1CCOc2c1c(NCCc1cccnc1)nn1c(-c3cccc(OC(F)(F)F)c3)nnc21 [Example 26, [6-Methyl-3-(3-trifluoromethoxy-phenyl)-7,8-dihydro-6H-9-oxa-1,2,3a,4,6-pentaaza-cyclopenta[a]naphthalen-5-yl]-(2-pyridin-3-yl-ethyl)-amine]
 | 100 to 1000 | < 100 |  |  | CN1CCC(CNc2nn3c(-c4cccc(OC(F)(F)F)c4)nnc3c3c2OCCO3)CC1 [Example 41, (1-Methyl-piperidin-4-ylmethyl)-[3-(3-trifluoromethoxy-phenyl)-7,8-dihydro-6,9-dioxa-1,2,3a,4-tetraaza-cyclopenta[a]naphthalen-5-yl]-amine]
 | 100 to 1000 | < 100 |  |  | CN1CCC(CNc2nn3c(-c4cccc(OC(F)(F)F)c4)nnc3c3c2N(C)C(C)(C)CO3)CC1 [Example 73, (1-Methyl-piperidin-4-ylmethyl)-[6,7,7-trimethyl-3-(3-trifluoromethoxy-phenyl)-7,8-dihydro-6H-9-oxa-1,2,3a,4,6-pentaaza-cyclopenta[a]naphthalen-5-yl]-amine]
 | > 1000 |  | 100 to 1000 |  | CN1CCOc2c(NCC34CCN(CC3)C4)nn3c(-c4cccc(OC(F)(F)F)c4)nnc3c21 [Example 53, (1-Aza-bicyclo[2.2.1]hept-4-ylmethyl)-[9-methyl-3-(3-trifluoromethoxy-phenyl)-8,9-dihydro-7H-6-oxa-1,2,3a,4,9-pentaaza-cyclopenta[a]naphthalen-5-yl]-amine]
 | < 100 | < 100 |  |  | CNCC1CCN(c2nn3c(-c4cccc(OC(F)(F)F)c4)nnc3c3c2N(C)CCO3)CC1 [Example 63, Methyl-{1-[6-methyl-3-(3-trifluoromethoxy-phenyl)-7,8-dihydro-6H-9-oxa-1,2,3a,4,6-pentaaza-cyclopenta[a]naphthalen-5-yl]-piperidin-4-ylmethyl}-amine]
 | > 1000 |  | 100 to 1000 |  | CN1CCOc2c(NCC3CC3)nn3c(-c4cccc(OC(F)(F)F)c4)nnc3c21 [Example 8, Cyclopropylmethyl-[9-methyl-3-(3-trifluoromethoxy-phenyl)-8,9-dihydro-7H-6-oxa-1,2,3a,4,9-pentaaza-cyclopenta[a]naphthalen-5-yl]-amine]

Continued, molecule first:

Compound | IC50 (PIM-3) [nM] | IC50 (PIM-2) [nM] | IC50 (PIM-1; [1]) [nM] | IC50 (PIM-1) [nM] | IC50 (PIM-1; read-out: PIM1 IC50) [nM]
CN1CCOc2c1c(NC1CCOCC1)nn1c(-c3cccc(OC(F)(F)F)c3)nnc21 [Example 23, [6-Methyl-3-(3-trifluoromethoxy-phenyl)-7,8-dihydro-6H-9-oxa-1,2,3a,4,6-pentaaza-cyclopenta[a]naphthalen-5-yl]-(tetrahydro-pyran-4-yl)-amine] | 100 to 1000 | < 100 | < 100 |  | 
CC(C)NCC1CCN(c2nn3c(-c4cccc(OC(F)(F)F)c4)nnc3c3c2N(C)CCO3)CC1 [Example 85, Isopropyl-{1-[6-methyl-3-(3-trifluoromethoxy-phenyl)-7,8-dihydro-6H-9-oxa-1,2,3a,4,6-pentaaza-cyclopenta[a]naphthalen-5-yl]-piperidin-4-ylmethyl}-amine] | 100 to 1000 | 100 to 1000 | < 100 |  | 
CN1CCC(CNc2nn3c(-c4cccc(C(F)(F)F)c4)nnc3c3c2N(C)CCO3)CC1 [Example 32, (1-Methyl-piperidin-4-ylmethyl)-[6-methyl-3-(3-trifluoromethyl-phenyl)-7,8-dihydro-6H-9-oxa-1,2,3a,4,6-pentaaza-cyclopenta[a]naphthalen-5-yl]-amine] | < 100 | 100 to 1000 | < 100 |  | 
COc1ccc(-c2nnc3c4c(c(NCc5ccc(F)cc5)nn23)OCCN4C)cc1 [Example 80, (4-Fluoro-benzyl)-[3-(4-methoxy-phenyl)-9-methyl-8,9-dihydro-7H-6-oxa-1,2,3a,4,9-pentaaza-cyclopenta[a]naphthalen-5-yl]-amine] |  | > 1000 | > 1000 |  | 
CN1CCOc2c(NCCN3CCN(S(C)(=O)=O)CC3)nn3c(-c4cccc(OC(F)(F)F)c4)nnc3c21 [Example 96, [2-(4-Methanesulfonyl-piperazin-1-yl)-ethyl]-[9-methyl-3-(3-trifluoromethoxy-phenyl)-8,9-dihydro-7H-6-oxa-1,2,3a,4,9-pentaaza-cyclopenta[a]naphthalen-5-yl]-amine] |  | > 1000 |  | 100 to 1000 | 
CN1CCOc2c(NCc3ccc(F)cc3)nn3c(-c4cccc(OC(F)(F)F)c4)nnc3c21 [Example 10, (4-Fluoro-benzyl)-[9-methyl-3-(3-trifluoromethoxy-phenyl)-8,9-dihydro-7H-6-oxa-1,2,3a,4,9-pentaaza-cyclopenta[a]naphthalen-5-yl]-amine] |  | > 1000 | > 1000 |  | 
CC1COc2c(c(NCC3CCN(C)CC3)nn3c(-c4cccc(OC(F)(F)F)c4)nnc23)N1C (stereo not drawn) [Example 39, [6,7-Dimethyl-3-(3-trifluoromethoxy-phenyl)-7,8-dihydro-6H-9-oxa-1,2,3a,4,6-pentaaza-cyclopenta[a]naphthalen-5-yl]-(1-methyl-piperidin-4-ylmethyl)-amine] |  | 100 to 1000 | < 100 |  | 
CN1CCOc2c(N3CCC(N)CC3)nn3c(-c4cccc(OC(F)(F)F)c4)nnc3c21 [Example 46, 1-[9-Methyl-3-(3-trifluoromethoxy-phenyl)-8,9-dihydro-7H-6-oxa-1,2,3a,4,9-pentaaza-cyclopenta[a]naphthalen-5-yl]-piperidin-4-ylamine] |  | > 1000 |  | 100 to 1000 | 
CCN1CCOc2c1c(NCC1CC1)nn1c(-c3cccc(OC(F)(F)F)c3)nnc21 [Example 11, Cyclopropylmethyl-[6-ethyl-3-(3-trifluoromethoxy-phenyl)-7,8-dihydro-6H-9-oxa-1,2,3a,4,6-pentaaza-cyclopenta[a]naphthalen-5-yl]-amine] |  | 100 to 1000 | < 100 |  | 
CN1CCC(CNc2nn3c(-c4cccc(OC(F)(F)F)c4)nnc3c3c2OCC(C)(C)N3C)CC1 [Example 72, (1-Methyl-piperidin-4-ylmethyl)-[8,8,9-trimethyl-3-(3-trifluoromethoxy-phenyl)-8,9-dihydro-7H-6-oxa-1,2,3a,4,9-pentaaza-cyclopenta[a]naphthalen-5-yl]-amine] | 100 to 1000 | > 1000 |  | 100 to 1000 | 
COc1ccc(-c2nnc3c4c(c(N5CCC(CNC(C)=O)CC5)nn23)N(C)CCO4)cc1 [Example 92, N-{1-[3-(4-Methoxy-phenyl)-6-methyl-7,8-dihydro-6H-9-oxa-1,2,3a,4,6-pentaaza-cyclopenta[a]naphthalen-5-yl]-piperidin-4-ylmeth I}-acetamide] |  | > 1000 | > 1000 |  | 
CN1CCOc2c1c(NCC1CCN(C(=O)OC(C)(C)C)CC1)nn1c(-c3cccc(OC(F)(F)F)c3)nnc21 [Example 79, 4-{[6-Methyl-3-(3-trifluoromethoxy-phenyl)-7,8-dihydro-6H-9-oxa-1,2,3a,4,6-pentaaza-cyclopenta[a]naphthalen-5-ylamino]-methyl}-piperidine-1-carboxylic acid tert-butyl ester] |  | > 1000 |  | 100 to 1000 | 
CCN1CCOc2c(NC3CCOCC3)nn3c(-c4cccc(OC(F)(F)F)c4)nnc3c21 [Example 14, [9-Ethyl-3-(3-trifluoromethoxy-phenyl)-8,9-dihydro-7H-6-oxa-1,2,3a,4,9-pentaaza-cyclopenta[a]naphthalen-5-yl]-(tetrahydro-pyran-4-yl)-amine] |  | > 1000 |  | 100 to 1000 | 583
CN1CCOc2c(N(C)C3CCNCC3)nn3c(-c4cccc(OC(F)(F)F)c4)nnc3c21 [Example 45, Methyl-[9-methyl-3-(3-trifluoromethoxy-phenyl)-8,9-dihydro-7H-6-oxa-1,2,3a,4,9-pentaaza-cyclopenta[a]naphthalen-5-yl]-piperidin-4-yl-amine] |  | > 1000 |  | 100 to 1000 | 
CN1CCOc2c1c(NCCCO)nn1c(-c3cccc(OC(F)(F)F)c3)nnc21 [Example 21, 3-[6-Methyl-3-(3-trifluoromethoxy-phenyl)-7,8-dihydro-6H-9-oxa-1,2,3a,4,6-pentaaza-cyclopenta[a]naphthalen-5-ylamino]-propan-1-ol] | 100 to 1000 | 100 to 1000 | < 100 |  | 
CN1CCN(C)c2c1c(NCc1ccc(F)cc1)nn1c(-c3ccc(O)cc3)nnc21 [Example 94, 4-[5-(4-Fluoro-benzylamino)-6,9-dimethyl-6,7,8,9-tetrahydro-1,2,3a,4,6,9-hexaaza-cyclopenta[a]naphthalen-3-yl]-phenol] |  | > 1000 | < 100 | 100 to 1000 | 
CN1CCOc2c1c(N1CCC(CN)CC1)nn1c(-c3cccc(OC(F)(F)F)c3)nnc21 [Example 55, C-{1-[6-Methyl-3-(3-trifluoromethoxy-phenyl)-7,8-dihydro-6H-9-oxa-1,2,3a,4,6-pentaaza-cyclopenta[a]naphthalen-5-yl]-piperidin-4-yl}-methylamine] | < 100 |  | < 100 |  | 
